For one assay, the system named is AR, ERα, GR and PR. In words: selectivity assays GAL4-AR, GAL4-ERα, GAL4-GR and GAL4-PR, antagonist mode. It counts as cell-based. The following applies: antagonist activity against MR compared to AR. The procedure:
In certain cases, compounds were also evaluated for activity in selectivity assays with other steroid hormone receptor members, including AR, ER, GR and PR, as well as GAL4 alone. Steroid receptors used for selectivity assays were essentially generated as described above for pCMX-GAL4-MR, and comprised the LBD and a portion of the hinge region of the nuclear receptor of interest cloned in frame into the vector pCMX-GAL4 (Perlmann et al., 1993,Genes & Development 7:1411-1422) as described above.
Assays run in antagonist mode included agonists as follows: AR; 25 nM dihydrotestosterone (DHT), ER; 4.5 nM estradiol, GR; 20 nM dexamethasone, and PR; 2 nM medroxyprogesterone (MPA), respectively. Assays run in agonist mode contained no supplemental compounds.
(§1) The following table provides in vitro MR activity data of representative compounds described in the Examples. […] The “+” mark under the selectivity column is given to those compounds having greater than ten-fold antagonist activity against MR compared to at least one nuclear receptor selected from AR, ERα, GR and PR, as determined from the GAL4-AR, GAL4-ERα, GAL4-GR and GAL4-PR assays. The “++” mark under the selectivity column identifies those compounds having greater than ten-fold antagonist activity against MR compared to the four nuclear receptors AR, ERα, GR and PR, as determined from the GAL4-AR, GAL4-ERα, GAL4-GR and GAL4-PR assays.

The next assay deals with T1, human MR (Homo sapiens, UniProt P08235).
T1 construct: expressed in transfected cells; host or cells: CV-1 (African Green Monkey Kidney Cells), transiently transfected with pCMX-GAL4-MR
T1 sequence (P08235 671-984): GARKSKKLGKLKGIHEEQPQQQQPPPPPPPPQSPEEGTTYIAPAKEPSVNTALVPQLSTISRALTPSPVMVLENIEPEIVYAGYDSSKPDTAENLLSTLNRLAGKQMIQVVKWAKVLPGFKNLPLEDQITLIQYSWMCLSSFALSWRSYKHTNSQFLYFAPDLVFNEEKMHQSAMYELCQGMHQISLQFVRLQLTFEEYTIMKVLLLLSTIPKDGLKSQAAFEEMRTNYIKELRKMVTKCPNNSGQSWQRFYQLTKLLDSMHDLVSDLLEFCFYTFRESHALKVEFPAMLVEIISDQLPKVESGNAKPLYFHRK
In words: GAL4-MR cell based assay, antagonist format. The procedure: Compound activity was determined in a cell-based assay using a GAL4-MR chimera to identify compounds with the ability to modulate MR activity.
The pCMX-GAL4-MR expression plasmid was constructed by cloning nucleotides encoding amino acids 671 to 984 of human MR (see GenBank sequence AAA59571) into the vector pCMX-GAL4 (Perlmann et al., 1993,Genes & Development 7:1411-1422) comprising nucleotides encoding for amino acids 1-147 of the GAL4 DNA binding domain.
The TK-MH 100x4-Luc (GAL4UAS-TK-Luciferase) reporter construct was constructed by insertion of four copies of the Gal4 UAS (Kang et al. 1993, J. Biol. Chem. 268:9629-9635) into the Hind III site of TK-Luc. The parental plasmid, TK-Luc, was prepared by insertion of the Herpes simplex virus thymidine kinase gene promoter (−105 to +51) obtained from the plasmid pBLCAT2 by digestion with HindIII and XhoI (described in Luckow et al., 1987, Nuc. Acid. Res. 15:5490) into the plasmid MMTV-LUC described by Hollenberg and Evans, 1988, Cell 55:899-906) after removal of MMTV-LTR promoter sequence from MMTV-LUC via digestion with HindIII and XhoI. Correct cloning was confirmed by restriction digestion and/or sequencing.
Assays were performed using CV-1 (African Green Monkey Kidney Cells) (ATCC) cells grown in T175 flasks at a density of 3×10^6 cells/flask in DMEM with 5% FBS. Cells were transfected one day after plating at 70-80 percent confluency with a DNA mixture containing (per T175 flask) 9 […] pCMX-GAL4-MR, 9 μg TK-MH100x4-Luc, and 2 μg pCMX β-Gal using the transfection reagent FuGENE6 (Roche Molecular Biochemicals, Indianapolis, Ind.) following recommended protocols and instructions provided by the manufacturer, and incubated with transfection reagents for 5 hours at 37° C.
Transfected cells were trypsinized, resuspended in media, and 45 μL was added to assay plates at a density of approximately 5,000 cells/well using a MultiDrop dispenser (MTX Lab Systems, Inc., VA). The assay plates containing both compounds and screening cells were incubated for approximately 20 hours at 37° C. and 5% CO2 in a tissue culture incubator.
After incubation of the transfected cells with compounds, Lysis buffer (1% Triton X-100, 10% Glycerol, 5 mM DTT, 1 mM EGTA, 25 mM Tricine, pH 7.8) and Luciferin assay buffer (0.73 mM ATP, 22.3 mM Tricine, 0.11 mM EDTA, 33.3 mM DTT, 0.2M MgSO4, 11 mM Luciferin, 6.1 mM Coenzyme A, 0.01 mM HEPES, pH 7.8) were prepared. Media was removed from the plates and lysis buffer and luciferin assay buffer mixed in a 1:1 ratio and then 30 μl of the mixture was added to each well using a Multidrop dispenser. Plates were read on the Northstar (Applied Biosystems, Foster City, Calif.) and data was analyzed using ActivityBase (ID Business Solutions, Ltd., Guildford, Surrey, UK). If required, luciferase values may be normalized for transfection efficiency by measuring β-galactosidase activity based on expression from the pCMX-βGal expression plasmid as described previously (Willy et al., 1995, Gene & Development, 9:1033-1045).
as §1

The term IC50 denotes the midpoint of a concentration-inhibition curve. A high value points to a need for much substance.

Where only a bound is given, the exact number is not on record here.

Turning to `Cc1nc(C(=O)Nc2ccc(S(C)(=O)=O)cc2)n(C)c1-c1ccccc1Oc1ccccc1` [1,4-dimethyl-5-(2-phenoxy-phenyl)-1H-imidazole-2-carboxylic acid (4-methanesulfonyl-phenyl)-amide], the Selectivity result in the assay with AR, ERα, GR and PR was “++ (greater than ten-fold antagonist activity against MR compared to the four nuclear receptors AR, ERα, GR and PR)”. Besides, on human MR, the IC50 was below 500 nM. In the case of `Cc1c(C(=O)Nc2ccc(S(C)(=O)=O)cc2)nn(C)c1-c1ccccc1C(F)(F)F` [1,4-dimethyl-5-(2-trifluoromethyl-phenyl)-1H-pyrazole-3-carboxylic acid (4-methanesulfonyl-phenyl)-amide], the Selectivity result with AR, ERα, GR and PR is “+ (greater than ten-fold antagonist activity against MR compared to at least one nuclear receptor selected from AR, ERα, GR and PR)”. This compound also yielded a concentration for half-maximal inhibition (IC50) against human MR below 500 nM. `Cc1c(C(=O)Nc2ccc(S(N)(=O)=O)cc2)cn(C)c1-c1ccccc1C(F)(F)F` [1,4-dimethyl-5-(2-trifluoromethyl-phenyl)-1H-pyrrole-3-carboxylic acid (4-sulfamoyl-phenyl)-amide]: the Selectivity result in the assay on AR, ERα, GR and PR is “++ (greater than ten-fold antagonist activity against MR compared to the four nuclear receptors AR, ERα, GR and PR)”. The compound further gave an IC50 against human MR below 500 nM.

`Cc1cc(C(=O)Nc2ccc(S(C)(=O)=O)cc2)c(C)n1-c1ccccc1/C=C/C(C)(C)C` [1-[2-((E)-3,3-Dimethyl-but-1-enyl)-phenyl]-2,5-dimethyl-1H-pyrrole-3-carboxylic acid (4-methanesulfonyl-phenyl)-amide]: the Selectivity entry with AR, ERα, GR and PR was “++ (greater than ten-fold antagonist activity against MR compared to the four nuclear receptors AR, ERα, GR and PR)”. Besides, the IC50 at human MR is below 500 nM.

`Cc1cc(C(=O)Nc2ccc(S(C)(=O)=O)cc2)c(C)n1-c1ccc(NC(=O)c2ccc(C(F)(F)F)cc2C(F)(F)F)cc1C(F)(F)F` [1-[4-(2,4-bis-trifluoromethyl-benzoylamino)-2-trifluoromethyl-phenyl]-2,5-dimethyl-1H-pyrrole-3-carboxylic acid (4-methanesulfonyl-phenyl)-amide]: the Selectivity result in the assay with AR, ERα, GR and PR is “+ (greater than ten-fold antagonist activity against MR compared to at least one nuclear receptor selected from AR, ERα, GR and PR)”. Further, the IC50 at human MR lay in the range of 1000 to 5000 nM. For the compound `Cc1ccc(NC(=O)c2cc(C)n(-c3ccccc3C(F)(F)F)c2C)cc1Cl` [2,5-Dimethyl-1-(2-trifluoromethyl-phenyl)-1H-pyrrole-3-carboxylic acid (3-chloro-4-methyl-phenyl)-amide], the IC50 at human MR was below 500 nM. The same measure, in the same setting: next, `Cc1ccc(NC(=O)c2cc(C)n(-c3ccccc3C(F)(F)F)c2C)cc1F` [2,5-Dimethyl-1-(2-trifluoromethyl-phenyl)-1H-pyrrole-3-carboxylic acid (3-fluoro-4-methyl-phenyl)-amide]: 500 to 1000 nM. Turning to `Cc1cnc(NC(=O)c2cc(C)n(-c3ccccc3C(F)(F)F)c2C)s1` [2,5-Dimethyl-1-(2-trifluoromethyl-phenyl)-1H-pyrrole-3-carboxylic acid (5-methyl-thiazol-2-yl)-amide], the IC50 against human MR was below 500 nM. Still for that read-out and setting: in the case of `Cc1cc(C(=O)Nc2ccc3ccccc3c2)c(C)n1-c1ccccc1C(F)(F)F` [2,5-Dimethyl-1-(2-trifluoromethyl-phenyl)-1H-pyrrole-3-carboxylic acid naphthalen-2-ylamide] it was below 500 nM; in that of `Cc1sc(C(=O)Nc2ccc(S(C)(=O)=O)cc2)c(C)c1-c1ccccc1C(F)(F)F` [3,5-dimethyl-4-(2-trifluoromethyl-phenyl)-thiophene-2-carboxylic acid (4-methanesulfonyl-phenyl)-amide], 500 to 1000 nM; in that of `Cc1c(C(=O)Nc2ccc(S(C)(=O)=O)cc2)ncn1-c1ccccc1C(F)(F)F` [5-methyl-1-(2-trifluoromethyl-phenyl)-1H-imidazole-4-carboxylic acid (4-methanesulfonyl-phenyl)-amide], 1000 to 5000 nM.

These data come from patent US20110144128A1, “Heterocyclic Carboxamide Compounds as Steroid Nuclear Receptors Ligands” (EXELIXIS, INC., priority 2005, published 2011).
